Experimental data from patent US20220389061A1, “IMMUNOMODULATORS” (priority 2019, published 2022).
Starred links: 1 amine or outer side, 2 acyl side, 3 side chain; linkers in the order of their positions; H or OH if unused. Positions of bridges follow the written chain, without caps; N, C: chain ends. Non-standard residues stand in square brackets, D forms with d. Residues, ends and D or L forms follow the SMILES beside them. Groups on a side chain read outwards from the residue. *: point of attachment. Trp(1-CH2CO2Me) = COC(=O)Cn1cc(C[C@H](N)C(=O)O)c2ccccc21; Trp(1-CH2COOH) = N[C@@H](Cc1cn(CC(=O)O)c2ccccc12)C(=O)O; NH(2-Cl-4-NO2-phenyl) = O=[N+]([O-])c1ccc(N*)c(Cl)c1; NH(benzothiophen-5-yl) = c1cc2cc(N*)ccc2s1; X65 = CC(C)(C)OC(=O)Nc1ccc(NC(=S)*)cc1; X79 = CCn1c2ccccc2c2cc(NC(=S)*)ccc21; X13 = O=[N+]([O-])c1ccc(NC(=S)*)cc1; Hyp = O=C(O)[C@@H]1C[C@@H](O)CN1; X10 = S=C(Nc1ccc(N2CCOCC2)cc1)*; NMeNle = CCCC[C@H](NC)C(=O)O; X92 = FC(F)(F)c1cc(Cl)ccc1N*; X5 = S=C(Nc1cccc2ccccc12)*; X6 = CCCCCCCOc1ccc(N*)cc1; NMeA = CN[C@@H](C)C(=O)O; Dab = NCC[C@H](N)C(=O)O; Dap = NC[C@H](N)C(=O)O; CO = O=C([*:1])[*:2]

What follows are compounds tested against T1, PD-1/PD-L1 (Homo sapiens, UniProt Q9NZQ7) (assay: PD-1/PD-L1 Homogenous Time-Resolved Fluorescence (HTRF) binding assay). Conditions: not given.
T1 construct: TVMV protease site linker (C); made in house; host or cells: HEK293T cells
T1 sequence (Q9NZQ7 18-239): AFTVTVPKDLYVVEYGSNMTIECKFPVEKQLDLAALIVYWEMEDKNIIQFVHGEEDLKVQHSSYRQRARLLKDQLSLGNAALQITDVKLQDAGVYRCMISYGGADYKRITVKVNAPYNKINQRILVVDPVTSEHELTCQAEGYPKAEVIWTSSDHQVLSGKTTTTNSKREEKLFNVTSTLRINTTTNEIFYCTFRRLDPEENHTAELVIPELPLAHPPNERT
Source text: The ability of the compounds of formula (I) to bind to PD-L1 was investigated using a PD-1/PD-L1 Homogenous Time-Resolved Fluorescence (HTRF) binding assay.
The interaction of PD-1 and PD-L1 can be assessed using soluble, purified preparations of the extracellular domains of the two proteins. The PD-1 and PD-L1 protein extracellular domains were expressed as fusion proteins with detection tags, for PD-1, the tag was the Fc portion of Immunoglobulin (PD-1-Ig) and for PD-L1 it was the 6 histidine motif (PD-L1-His). All binding studies were performed in an HTRF assay buffer consisting of dPBS supplemented with 0.1% […] bovine serum albumin and 0.05% (v/v) Tween-20. For the h/PD-L1-His binding assay, inhibitors were pre-incubated with PD-L1-His (10 nM final) for 15 m in 4 μl of assay buffer, followed by addition of PD-1-Ig (20 nM final) in 1 μl of assay buffer and further incubation for 15 m. HTRF detection was achieved using europium crypate-labeled anti-Ig (1 nM final) and allophycocyanin (APC) labeled anti-His (20 nM final). Antibodies were diluted in HTRF detection buffer and 5 μl was dispensed on top of the binding reaction. […] Additional binding assays were established between the human proteins PD-1-Ig/PD-L2-His (20 & 5 nM, respectively) and CD80-His/PD-L1-Ig (100 & 10 nM, respectively). […]
For `CCCC[C@H]1C(=O)N(C)[C@@H](CCCC)C(=O)N[C@@H](CC(C)C)C(=O)N[C@H](C(=O)NCC(N)=O)CSCC(=O)N[C@@H](Cc2ccc(O)cc2)C(=O)N(C)[C@@H](C)C(=O)N[C@@H](CC(N)=O)C(=O)N2CCC[C@H]2C(=O)N[C@@H](CNC(=S)Nc2ccc([N+](=O)[O-])cc2)C(=O)N[C@@H](CC(C)C)C(=O)N2C[C@H](O)C[C@H]2C(=O)N[C@@H](Cc2c[nH]c3ccccc23)C(=O)N[C@@H](CCNC(=S)Nc2ccc([N+](=O)[O-])cc2)C(=O)N[C@@H](Cc2cn(CC(=O)O)c3ccccc23)C(=O)N1C` [Example 1025] ({CH2CO}-Y[NMeA]NP[Dap](X13)L[Hyp]W[Dab](X13)[Trp(1-CH2COOH)][NMeNle][NMeNle]LCG-NH2; thioether N-14), the IC50 was 0.8 nM.
`CCCC[C@H]1C(=O)N(C)[C@@H](CCCC)C(=O)N[C@@H](CC(C)C)C(=O)N[C@H](C(=O)NCC(N)=O)CSCC(=O)N[C@@H](Cc2ccc(O)cc2)C(=O)N(C)[C@@H](C)C(=O)N[C@@H](CC(N)=O)C(=O)N2CCC[C@H]2C(=O)N[C@@H](CNC(=O)Nc2ccc([N+](=O)[O-])cc2Cl)C(=O)N[C@@H](CC(C)C)C(=O)N2C[C@H](O)C[C@H]2C(=O)N[C@@H](Cc2c[nH]c3ccccc23)C(=O)N[C@@H](CCNC(=O)Nc2ccc([N+](=O)[O-])cc2Cl)C(=O)N[C@@H](Cc2cn(CC(=O)O)c3ccccc23)C(=O)N1C` [Example 1096] ({CH2CO}-Y[NMeA]NP[Dap]([CO-NH(2-Cl-4-NO2-phenyl)])L[Hyp]W[Dab]([CO-NH(2-Cl-4-NO2-phenyl)])[Trp(1-CH2COOH)][NMeNle][NMeNle]LCG-NH2; thioether N-14) was tested, and the IC50 was 6.9 nM.

Same assay, conditions: PD-L1-His 10 nM pre-incubated with inhibitor, PD-1-Ig 20 nM; read-out: HTRF IC50
`CCCC[C@H]1C(=O)N(C)[C@@H](CCCC)C(=O)N[C@@H](CC(C)C)C(=O)N[C@H](C(=O)NCC(N)=O)CSCC(=O)N[C@@H](Cc2ccc(O)cc2)C(=O)N(C)[C@@H](C)C(=O)N[C@@H](CC(N)=O)C(=O)N2CCC[C@H]2C(=O)N[C@@H](CNC(=O)Nc2ccc3sccc3c2)C(=O)N[C@@H](CC(C)C)C(=O)N2C[C@H](O)C[C@H]2C(=O)N[C@@H](Cc2c[nH]c3ccccc23)C(=O)N[C@@H](CCNC(=O)Nc2ccc3sccc3c2)C(=O)N[C@@H](Cc2cn(CC(=O)OC)c3ccccc23)C(=O)N1C` [Example 3057] ({CH2CO}-Y[NMeA]NP[Dap]([CO-NH(benzothiophen-5-yl)])L[Hyp]W[Dab]([CO-NH(benzothiophen-5-yl)])[Trp(1-CH2CO2Me)][NMeNle][NMeNle]LCG-NH2; thioether N-14) was tested, and the IC50 was 34 nM.
`CCCC[C@H]1C(=O)N(C)[C@@H](CCCC)C(=O)N[C@@H](CC(C)C)C(=O)N[C@H](C(=O)NCC(N)=O)CSCC(=O)N[C@@H](Cc2ccc(O)cc2)C(=O)N(C)[C@@H](C)C(=O)N[C@@H](CC(N)=O)C(=O)N2CCC[C@H]2C(=O)N[C@@H](CN)C(=O)N[C@@H](CC(C)C)C(=O)N2C[C@H](O)C[C@H]2C(=O)N[C@@H](Cc2c[nH]c3ccccc23)C(=O)N[C@@H](CCNC(=S)Nc2cccc3ccccc23)C(=O)N[C@@H](Cc2cn(CC(=O)O)c3ccccc23)C(=O)N1C` [Example 3029] ({CH2CO}-Y[NMeA]NP[Dap]L[Hyp]W[Dab](X5)[Trp(1-CH2COOH)][NMeNle][NMeNle]LCG-NH2; thioether N-14) showed an IC50 of 0.1 nM.
`CCCC[C@H]1C(=O)N(C)[C@@H](CCCC)C(=O)N[C@@H](CC(C)C)C(=O)N[C@H](C(=O)NCC(N)=O)CSCC(=O)N[C@@H](Cc2ccc(O)cc2)C(=O)N(C)[C@@H](C)C(=O)N[C@@H](CC(N)=O)C(=O)N2CCC[C@H]2C(=O)N[C@@H](CNC(=S)Nc2ccc(N3CCOCC3)cc2)C(=O)N[C@@H](CC(C)C)C(=O)N2C[C@H](O)C[C@H]2C(=O)N[C@@H](Cc2c[nH]c3ccccc23)C(=O)N[C@@H](CCN)C(=O)N[C@@H](Cc2cn(CC(=O)OC)c3ccccc23)C(=O)N1C` [Example 1053] ({CH2CO}-Y[NMeA]NP[Dap](X10)L[Hyp]W[Dab][Trp(1-CH2CO2Me)][NMeNle][NMeNle]LCG-NH2; thioether N-14) was tested, and the IC50 was 3.2 nM.
For `CCCCCCCOc1ccc(NC(=O)NC[C@@H]2NC(=O)[C@@H]3CCCN3C(=O)[C@H](CC(N)=O)NC(=O)[C@H](C)N(C)C(=O)[C@H](Cc3ccc(O)cc3)NC(=O)CSC[C@@H](C(=O)NCC(N)=O)NC(=O)[C@H](CC(C)C)NC(=O)[C@H](CCCC)N(C)C(=O)[C@H](CCCC)N(C)C(=O)[C@H](Cc3cn(CC(=O)O)c4ccccc34)NC(=O)[C@H](CCN)NC(=O)[C@H](Cc3c[nH]c4ccccc34)NC(=O)[C@@H]3C[C@@H](O)CN3C(=O)[C@H](CC(C)C)NC2=O)cc1` [Example 1089] ({CH2CO}-Y[NMeA]NP[Dap]([CO-X6])L[Hyp]W[Dab][Trp(1-CH2COOH)][NMeNle][NMeNle]LCG-NH2; thioether N-14), the IC50 was 12 nM.
Work on `CCCC[C@H]1C(=O)N(C)[C@@H](CCCC)C(=O)N[C@@H](CC(C)C)C(=O)N[C@H](C(=O)NCC(N)=O)CSCC(=O)N[C@@H](Cc2ccc(O)cc2)C(=O)N(C)[C@@H](C)C(=O)N[C@@H](CC(N)=O)C(=O)N2CCC[C@H]2C(=O)N[C@@H](CNC(=S)Nc2ccc3c(c2)c2ccccc2n3CC)C(=O)N[C@@H](CC(C)C)C(=O)N2C[C@H](O)C[C@H]2C(=O)N[C@@H](Cc2c[nH]c3ccccc23)C(=O)N[C@@H](CCNC(=S)Nc2ccc3c(c2)c2ccccc2n3CC)C(=O)N[C@@H](Cc2cn(CC(=O)O)c3ccccc23)C(=O)N1C` [Example 2013] ({CH2CO}-Y[NMeA]NP[Dap](X79)L[Hyp]W[Dab](X79)[Trp(1-CH2COOH)][NMeNle][NMeNle]LCG-NH2; thioether N-14) yielded an IC50 of 8.1 nM.
In the case of `CCCC[C@H]1C(=O)N(C)[C@@H](CCCC)C(=O)N[C@@H](CC(C)C)C(=O)N[C@H](C(=O)NCC(N)=O)CSCC(=O)N[C@@H](Cc2ccc(O)cc2)C(=O)N(C)[C@@H](C)C(=O)N[C@@H](CC(N)=O)C(=O)N2CCC[C@H]2C(=O)N[C@@H](CNC(=O)Nc2ccc(Cl)cc2C(F)(F)F)C(=O)N[C@@H](CC(C)C)C(=O)N2C[C@H](O)C[C@H]2C(=O)N[C@@H](Cc2c[nH]c3ccccc23)C(=O)N[C@@H](CCNC(=O)Nc2ccc(Cl)cc2C(F)(F)F)C(=O)N[C@@H](Cc2cn(CC(=O)O)c3ccccc23)C(=O)N1C` [Example 1138] ({CH2CO}-Y[NMeA]NP[Dap]([CO-X92])L[Hyp]W[Dab]([CO-X92])[Trp(1-CH2COOH)][NMeNle][NMeNle]LCG-NH2; thioether N-14), the IC50 is reported as 9.7 nM.
Work on `CCCC[C@H]1C(=O)N(C)[C@@H](CCCC)C(=O)N[C@@H](CC(C)C)C(=O)N[C@H](C(=O)NCC(N)=O)CSCC(=O)N[C@@H](Cc2ccc(O)cc2)C(=O)N(C)[C@@H](C)C(=O)N[C@@H](CC(N)=O)C(=O)N2CCC[C@H]2C(=O)N[C@@H](CNC(=S)Nc2ccc(NC(=O)OC(C)(C)C)cc2)C(=O)N[C@@H](CC(C)C)C(=O)N2C[C@H](O)C[C@H]2C(=O)N[C@@H](Cc2c[nH]c3ccccc23)C(=O)N[C@@H](CCNC(=S)Nc2ccc(NC(=O)OC(C)(C)C)cc2)C(=O)N[C@@H](Cc2cn(CC(=O)O)c3ccccc23)C(=O)N1C` [Example 1041] ({CH2CO}-Y[NMeA]NP[Dap](X65)L[Hyp]W[Dab](X65)[Trp(1-CH2COOH)][NMeNle][NMeNle]LCG-NH2; thioether N-14) yielded an IC50 of 2.3 nM.
